Consider 35 molecules from a melting point compilation (Tetko et al.; mined from patent text by program, amines drawn as free bases though some values may be those of a salt).

The term melting point denotes the temperature, or range, at which the solid turns liquid.

As for `CCOC(=O)C1=CCCCC1S(=O)(=O)Nn1c(Br)ccc1Br` (stereo not given), the melting point fell in the range of 123 to 124 °C. The result for `CC(C)(C)C(=O)NC1CCC(c2cc(Nc3cccc(C(F)(F)F)c3)n[nH]2)C1` (stereo not given) reads 249 °C. `O=[N+]([O-])c1cc(F)ccc1OC1CCC(O)CC1` (stereo not given) had a melting point of 151 °C. The figure for `O=C(CO)c1cccc(Br)c1` is 100 to 101 °C; for `CC(C)C1(C)N=C(c2nc3occ(Cl)c3cc2C(=O)O)NC1=O` (stereo not given) it is 239 to 240 °C.

`CC1CCN(S(=O)(=O)Nc2cc(C(c3cc(F)ccc3F)S(=O)(=O)c3ccc(Cl)cc3)c(Cl)cn2)CC1` (stereo not given) gave a melting point of 215 to 218 °C.

`NC(=O)c1c(F)ccc(OCc2nc3ccc(OC(F)(F)F)cc3s2)c1F`: the melting point lay within 174 to 175 °C. The figure for `O=c1[nH]c2[nH]c3ccc(Cl)cc3c2c2ccccc12` is > 300 °C; for `CCC(C)(C)c1c[nH]cn1` it is 95 to 96 °C; for `COC(=O)c1cccnc1C(=O)c1ccc(F)cc1` it is 95 to 96.5 °C. With `CS(=O)(=O)OCCNc1ccc([N+](=O)[O-])cc1Cl`, the melting point was in the range of 114 to 115 °C. The figure for `COC(=O)C(Oc1ccc([N+](=O)[O-])cc1)C(C)=O` (stereo not given) is 87.5 to 88 °C; for `CCOC(OCC)c1cc(NC(c2ccccc2)(c2ccccc2)c2ccccc2)c(F)c(-c2ccc(Cl)c(OC)c2F)n1` it is 177 to 180 °C; for `N=C(N)NCCc1ccc(OCCCCC(c2ccccc2)(c2ccccc2)c2ccccc2)cc1` it is 119 to 121 °C. The figure for `O=[N+]([O-])N=C1SCCN1Cc1ccncc1` is 151 to 152 °C.

For the molecule `Cc1nn(C)c(Cl)c1S(=O)(=O)N1CCC2(CC1)CSC1=C(O2)c2ccccc2C(=O)C1=O`, the melting point lay in the range of 247 to 249 °C. `O=c1[nH]c(Cc2ccccc2)no1` had a melting point of 114 to 116 °C. The result for `Cc1cc(C(C)(C)C)c(OC(=O)c2ccccc2C(=O)Oc2c(C(C)(C)C)cc(C)cc2C(C)(C)C)c(C(C)(C)C)c1` reads 262 to 265 °C. As to `O=[N+]([O-])c1cc2nc(O)c(O)nc2c2c1CCCC2`, the melting point was > 300 °C. The result for `CCC(=O)NC(C)(C)CSc1cc(C)c(Cl)cc1C` reads 78 to 81 °C; that for `O=C(O)COc1ccc(C(F)(F)F)cc1C(=O)NCc1ccc(Br)cc1F`, 169 to 170 °C. The result for `CCCCc1oc2ccc(-c3nnn[nH]3)cc2c1C(=O)c1ccc(OCCCN(CCCC)CCCC)cc1` reads 145 to 147 °C. Turning to `COCCOc1cc(OC)c2c(=O)[nH]c(-c3ccc(N4C[C@@H](C)N(C(C)=O)[C@@H](C)C4)cc3)nc2c1`, the melting point was in the range of 225 to 227 °C. For the molecule `COc1cc([N+](=O)[O-])c(N)cc1C(=O)O`, the melting point fell in the range of 252 to 255 °C. For `CCCCN1CC(O)N(c2cc(OC)c(Cl)cc2F)C1=S` (stereo not given), the melting point is 137 to 138 °C.

In turn, `Nc1cccc(P(=O)(O)O)c1` displayed a melting point of 300 °C. Turning to `OC(CCl)Cn1c2ccccc2c2cc(-c3ccc4c(c3)c3ccccc3n4CC(O)CCl)ccc21` (stereo not given), the melting point is 152 to 153 °C. For `C=C(C)c1ccc(C(=O)C2=C(O)C(=O)N(c3ccc(C)nn3)C2c2ccc(OC(F)(F)F)cc2)cc1` (stereo not given), the melting point turned out to be 253 °C. As for `N#Cc1c([N+](=O)[O-])ccc(Cl)c1CBr`, the melting point was 89 °C. For the molecule `Clc1ccc2c(c1)N=Cc1ccccc1O2`, the melting point was 73 to 73.5 °C. Regarding `C=CCONC(CCC)=C1C(=O)CC(C2CCOCC2)CC1=O` (stereo not given), the melting point is 55 to 56 °C. Turning to `CCOc1n[nH]c(=O)n1C1CC1`, the melting point lay within 144 to 145 °C.

`N#Cc1ccc(-c2cn(-c3ccc(OCC(F)(F)F)cc3)cn2)cc1` returned a melting point of 179 °C.

`COc1ccc(CCN(C)CCCN(C(C)C)S(=O)(=O)c2ccc(Cl)c(Cl)c2)cc1OC` returned a melting point of 62 to 64 °C. The figure for `Cn1c(Cl)c(C(=O)C(=O)N2CCCC2)c2ccc(Cl)cc21` is 174 to 175 °C.
